In the supplement of paper PMC11451515:

Test system: NOMO1
Test: cell viability relative to DMSO control; higher = less cytotoxic
Conditions: 48 h
Method in brief: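 In 1536-well plates, 5 μl of leukemia cells were seeded per well: 500 cells/well for NOMO1 or SEM and 1000 cells/well for P12-Ichikawa. Each line had first been adapted for at least four passages in each medium. Library compounds in DMSO were pin-dosed at 11 threefold concentrations between 47 μM and 0.79 nM, and CellTiter-Glo One luminescence was read after 48 h at 37°C. Viability is a per-plate percentage relative to DMSO wells, with cell-free wells as background.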

[1] = HPLM + 10% dialyzed FBS, 0.000781 µM
[2] = HPLM + 10% dialyzed FBS, 0.00234 µM
[3] = HPLM + 10% dialyzed FBS, 0.00702 µM
[4] = HPLM + 10% dialyzed FBS, 0.0211 µM
[5] = HPLM + 10% dialyzed FBS, 0.0632 µM
[6] = HPLM + 10% dialyzed FBS, 0.19 µM
[7] = HPLM + 10% dialyzed FBS, 0.569 µM
[8] = HPLM + 10% dialyzed FBS, 1.71 µM
[9] = HPLM + 10% dialyzed FBS, 5.12 µM
[10] = HPLM + 10% dialyzed FBS, 15.4 µM
[11] = HPLM + 10% dialyzed FBS, 46.1 µM
[12] = RPMI 5 mM glucose + 10% FBS, 0.000781 µM
[13] = RPMI 5 mM glucose + 10% FBS, 0.00234 µM
[14] = RPMI 5 mM glucose + 10% FBS, 0.00702 µM
[15] = RPMI 5 mM glucose + 10% FBS, 0.0211 µM
[16] = RPMI 5 mM glucose + 10% FBS, 0.0632 µM
[17] = RPMI 5 mM glucose + 10% FBS, 0.19 µM
[18] = RPMI 5 mM glucose + 10% FBS, 0.569 µM
[19] = RPMI 5 mM glucose + 10% FBS, 1.71 µM
[20] = RPMI 5 mM glucose + 10% FBS, 5.12 µM
[21] = RPMI 5 mM glucose + 10% FBS, 15.4 µM
[22] = RPMI 5 mM glucose + 10% FBS, 46.1 µM
[23] = RPMI 5 mM glucose + 10% dialyzed FBS, 0.000781 µM
[24] = RPMI 5 mM glucose + 10% dialyzed FBS, 0.00234 µM
[25] = RPMI 5 mM glucose + 10% dialyzed FBS, 0.00702 µM
[26] = RPMI 5 mM glucose + 10% dialyzed FBS, 0.0211 µM
[27] = RPMI 5 mM glucose + 10% dialyzed FBS, 0.0632 µM
[28] = RPMI 5 mM glucose + 10% dialyzed FBS, 0.19 µM
[29] = RPMI 5 mM glucose + 10% dialyzed FBS, 0.569 µM
[30] = RPMI 5 mM glucose + 10% dialyzed FBS, 1.71 µM
[31] = RPMI 5 mM glucose + 10% dialyzed FBS, 5.12 µM
[32] = RPMI 5 mM glucose + 10% dialyzed FBS, 15.4 µM
[33] = RPMI 5 mM glucose + 10% dialyzed FBS, 46.1 µM

SMILES	cell viability [1] [%]	cell viability [2] [%]	cell viability [3] [%]	cell viability [4] [%]	cell viability [5] [%]	cell viability [6] [%]	cell viability [7] [%]	cell viability [8] [%]	cell viability [9] [%]	cell viability [10] [%]	cell viability [11] [%]	cell viability [12] [%]	cell viability [13] [%]	cell viability [14] [%]	cell viability [15] [%]	cell viability [16] [%]	cell viability [17] [%]	cell viability [18] [%]	cell viability [19] [%]	cell viability [20] [%]	cell viability [21] [%]	cell viability [22] [%]	cell viability [23] [%]	cell viability [24] [%]	cell viability [25] [%]	cell viability [26] [%]	cell viability [27] [%]	cell viability [28] [%]	cell viability [29] [%]	cell viability [30] [%]	cell viability [31] [%]	cell viability [32] [%]	cell viability [33] [%]
COC1=CC2=C(C=C1OC)[C@H]3[C@@H](CO2)OC4=C(C=CC5=C4\C=C/C(C)(C)O5)C3=O	82.8	89.3	106	96.8	95	98.5	94	82.8	70.4	69.3	10.3	88.8	95.3	93.3	99.2	89	93.6	90.8	82.8	78.7	76.5	9.87	86.3	88.1	91	95.2	79.9	98.1	94.3	88.5	81.9	81.4	21.4
CC[C@@]1(O)C[C@H](O[C@H]2C[C@H](N(C)C)[C@H](O[C@H]3C[C@H](O)[C@H](O[C@H]4CCC(=O)[C@H](C)O4)[C@H](C)O3)[C@H](C)O2)c2c(cc3c(c2O)C(=O)c2c(O)cccc2C3=O)[C@H]1C(=O)OC	109	106	106	106	122	101	109	82	67	78.5	71.9	95.7	102	95.6	97.6	106	93.8	95.6	64.2	76.6	75.8	85	91.5	84.7	94.4	98.1	102	90.4	93.9	67.7	71.6	75.3	72.1
COc1cc(OC)c(NC(=O)Nc2cc(C)on2)cc1Cl	97.6	96.4	100	106	106	84.4	119	114	100	105	96.9	83.5	96.7	85.2	92.7	93.8	97.9	93.9	91	90.1	88.7	99.5	86.8	83.8	81.3	85.6	97.3	89.4	98	79.7	83	88.1	88.3
C[N+](C)([O-])CCNc1ccc(NCC[N+](C)(C)[O-])c2c1C(=O)c1c(O)ccc(O)c1C2=O	84.5	94.9	96.7	103	108	97.2	80.6	70.2	51.2	48	38.3	84.4	86.9	84.1	97.2	89.4	94.5	91.4	90.4	33	55.8	19.8	90.3	93.6	92.6	92.7	102	99.6	90.5	77	59.7	48.5	44
O=C1N\2CCC3=C([NH]C4=C3C=CC=C4)C2=N/C5=CC=CC=C15	111	122	130	134	155	147	130	129	155	130	112	144	124	125	128	132	124	169	136	139	140	131	115	121	129	130	130	124	122	140	135	141	124
CCN(C)C(=O)Oc1cccc([C@H](C)N(C)C)c1	110	117	124	128	102	110	122	95.3	99.9	109	106	95.9	102	99.3	105	108	94.4	108	111	92.6	112	98.4	101	98.3	104	111	109	97.7	91.6	87.1	105	98.5	110
CN[S+](=O)([O-])CCc1ccc2[nH]cc(C3CCN(C)CC3)c2c1	91.2	95.9	91.3	114	112	107	106	101	98.6	108	107	83	84.2	91.3	86.6	99.7	89.5	87.6	92.7	102	87.8	96.4	91.5	83.4	90.3	95.4	93.3	104	105	96.2	102	85.3	89.3
CCN1C[C@]2(OC(=O)c3ccccc3NC(C)=O)CC[C@H](OC)[C@@]34[C@@H]2C[C@@H]([C@@H]13)[C@@]1(O)C[C@H](OC)[C@H]2C[C@@H]4[C@]1(O)[C@H]2OC	106	101	118	101	108	88.3	118	103	112	93.2	114	96.3	99.4	101	106	103	91.6	118	107	95.1	101	107	98	104	120	99.1	105	105	109	107	111	106	95.9
NC(=O)c1cccc(N)c1	116	107	119	114	135	134	124	130	126	125	101	97	104	114	120	104	123	105	97.8	109	113	127	102	104	114	116	109	133	116	110	112	106	115
N[C@@H](CC(=O)N1CCn2c(nnc2C(F)(F)F)C1)Cc1cc(F)c(F)cc1F	119	98.7	111	119	100	106	103	102	109	94.9	83.5	83.3	97.4	84.6	86.4	92.4	84.8	86	83.4	96.2	85.1	82.9	103	96.3	99.5	95.2	106	91.7	93.4	100	96.2	94.8	79.5
CN(C)c1ccc2cc(C(=O)N[C@@H](CCCNC(=N)CCl)C(=O)NCc3ccccc3)ccc2c1	108	128	108	121	125	107	112	112	106	87.2	14	92	119	104	96.3	98.5	102	97	98.6	100	85.4	8.34	114	109	103	110	111	119	115	105	105	98.7	12.5
COc1cccc2c1C(=O)c1c(O)c3c(c(O)c1C2=O)C[C@@](O)(C(C)=O)C[C@@H]3O[C@H]1C[C@H](N)[C@H](O)[C@H](C)O1	98.6	107	108	114	111	81.5	12.4	7.35	5.97	5.19	4.98	99	104	106	99.2	108	78.6	9.07	4.79	4.48	5.23	3.6	91.6	113	107	115	108	73.4	9.73	6.25	4.58	4.86	4.92
NC(=O)Nc1cc(-c2ccc(CN3CCOCC3)cc2)sc1C(N)=O	122	112	121	132	113	68.3	71.7	91.5	84.6	74.9	48.4	100	113	126	101	97.6	50	50.8	45.9	52.1	58.5	49.6	107	99.3	108	108	101	55.5	46.2	47.8	56	58.3	37.2
CC(C)NCC(O)COc1ccc(CCOCC2CC2)cc1 (centres undefined)	–	–	–	–	–	–	–	–	–	–	–	118	128	107	109	105	107	109	110	114	102	19.9	121	125	122	117	119	118	129	113	116	99.1	20.9
COc1cc2ncnc(Nc3cccc(Br)c3)c2cc1OC	90.4	98.3	101	98.9	109	120	108	118	98.2	94.5	86.1	98	95.9	106	110	109	108	110	111	106	112	117	80.8	90.6	98.6	97.4	103	103	102	112	102	102	101
